Assay results published in patent US9725463B2, “Substituted heterocyclic compounds as CRAC modulators” (LUPIN LIMITED, priority 2013, dated 2017).

The compounds below were run on IL-2 secretion by Jurkat T cells (assay: Inhibition of IL-2 secretion). Details: Homo sapiens; Jurkat T cells stimulated with PHA, 20 to 24 hours, IL-2 by ELISA.
Type: cell-based
Protocol: The CRAC channel modulatory activity of the compounds were thus evaluated by measuring the secretion of IL-2 by antigen stimulated T-cells in vitro. Alternatively, such activity can also be evaluated by assay methods known to one skilled in the art.
Inhibition of IL-2 secretion: Jurkat T cells were seeded at a density of 0.5 to 1 million cells per well in RPMI medium. Test compounds from this invention were added to the cells at different concentrations. This was followed by the addition of PHA, a T cell mitogen after 10 minutes. The cells were then incubated for 20 to 24 hours in a CO2 incubator at 37° C. After incubation with the compounds, cells were centrifuged, the supernatant was collected and processed for ELISA to quantitate the amount of IL-2 secreted. A commercial ELISA kit (R&D Systems, Inc. Minneapolis, Minn., USA) was used to estimate the IL-2 concentrations. Amount of IL-2 secreted by cells stimulated with PHA was considered as a 100% maximal signal and the decrease in amount of IL-2 secreted by cells treated with the test compounds was expressed as percent inhibition of the maximal signal. The dose response data was analyzed using 4-parametric sigmoidal dose response (variable slope) curve-fit.

SMILES	IC50 [nM]
CCc1c(-c2cnc(NC(=O)c3c(F)cccc3F)cn2)cnc2c1oc(=O)n2C [Example 6, N-(5-(7-Ethyl-3-methyl-2-oxo-2,3-dihydrooxazolo [4,5-b]pyridin-6-yl)pyrazin-2-yl)-2,6-difluorobenzamide]	100 to 500
Cn1c(=O)oc2c(C3CC3)c(-c3ccc(NC(=O)c4c(F)cccc4F)cc3)ccc21 [Example 23, N-(4-(7-Cyclopropyl-3-methyl-2-oxo-2,3-dihydrobenzo[d]oxazol-6-yl)phenyl)-2,6-difluorobenzamide]	25 to 50
Cn1c(=O)oc2c(C3CC3)c(-c3ccc(NC(=O)c4c(F)cccc4F)nc3)ccc21 [Example 25, N-(5-(7-Cyclopropyl-3-methyl-2-oxo-2,3-dihydrobenzo[d]oxazol-6-yl)pyridin-2-yl)-2,6-difluorobenzamide]	25 to 50
Cn1c(=O)oc2c(C3CC3)c(-c3cnc(NC(=O)c4c(F)cccc4F)cn3)ccc21 [Example 26, N-(5-(7-Cyclopropyl-3-methyl-2-oxo-2,3-dihydrobenzo[d]oxazol-6-yl)pyrazin-2-yl)-2,6-difluorobenzamide]	100 to 500
CCn1c(=O)oc2cc(C)c(-c3ccc(NC(=O)c4c(F)cccc4F)cc3)cc21 [Example 28, N-(4-(3-Ethyl-6-methyl-2-oxo-2,3-dihydrobenzo[d]oxazol-5-yl)phenyl)-2,6-difluorobenzamide]	50 to 100
Cc1cc2oc(=O)n(CCC(F)(F)F)c2cc1-c1ccc(NC(=O)c2c(F)cccc2F)cc1 [Example 33, 2,6-Difluoro-N-(4-(6-methyl-2-oxo-3-(3,3,3-trifluoropropyl)-2,3-dihydrobenzo[d]oxazol-5-yl)phenyl) benzamide]	100 to 500
CCCn1c(=O)oc2cc(C)c(-c3ccc(NC(=O)c4c(F)cccc4F)cc3)cc21 [Example 34, 2,6-Difluoro-N-(4-(6-methyl-2-oxo-3-propyl-2,3-dihydrobenzo [d]oxazol-5-371)phenyl)benzamide]	< 25
Cn1c(=O)oc2cc(-c3ccc(NC(=O)c4c(F)cccc4F)cc3)c(C3CC3)cc21 [Example 42, N-(4-(5-Cyclopropyl-3-methyl-2-oxo-2,3-dihydrobenzo[d]oxazol-6-yl)phenyl)-2,6-difluorobenzamide]	< 25
Cc1cc2c(cc1-c1ccc(NC(=O)c3c(F)cccc3F)cc1)oc(=O)n2C [Example 56, N-(4-(3,5-Dimethyl-2-oxo-2,3-dihydrobenzo [d]oxazol-6-yl)phenyl)-2,6-difluorobenzamide]	< 25
Cc1cc2oc(=O)n(C)c2cc1-c1ccc(C(=O)Nc2c(F)cncc2F)s1 [Example 60, N-(3,5-Difluoropyridin-4-yl)-5-(3,6-dimethyl-2-oxo-2,3-dihydrobenzo [d]oxazol-5-yl) thiophene-2-carboxamide]	< 25
CCc1cc2c(cc1-c1ccc(NC(=O)c3c(F)cccc3F)nc1)oc(=O)n2C [Example 69, N-(5-(5-Ethyl-3-methyl-2-oxo-2,3-dihydrobenzo [d]oxazol-6-yl)pyridin-2-yl)-2,6-difluoro benzamide]	25 to 50
CCc1cc2c(cc1-c1cnc(NC(=O)c3c(F)cccc3F)cn1)oc(=O)n2C [Example 70, N-(5-(5-Ethyl-3-methyl-2-oxo-2,3-dihydrobenzo [d]oxazol-6-yl)pyrazin-2-yl)-2,6-difluoro benzamide]	< 25
Cn1c(=O)oc2cc(-c3cnc(NC(=O)c4c(F)cccc4F)cn3)c(C3CC3)cc21 [Example 72, N-(5-(5-Cyclopropyl-3-methyl-2-oxo-2,3-dihydrobenzo [d]oxazol-6-yl)pyrazin-2-yl)-2,6-difluorobenzamide]	50 to 100
CCc1cc2c(cc1-c1ccc(C(=O)Nc3c(F)cccc3F)s1)oc(=O)n2C [Example 73, N-(2,6-Difluorophenyl)-5-(5-ethyl-3-methyl-2-oxo-2,3-dihydrobenzo [d]oxazol-6-yl) thiophene-2-carboxamide]	25 to 50

Continued, values first:

IC50 [nM]	SMILES
25 to 50	Cc1c(-c2ccc(NC(=O)c3c(F)cccc3F)cc2)cnc2c1oc(=O)n2C [Example 1, N-(4-(3,7-Dimethyl-2-oxo-2,3-dihydrooxazolo[4,5-b]pyridin-6-yl)phenyl)-2,6-difluorobenzamide]
< 25	CCc1c(-c2ccc(NC(=O)c3c(F)cccc3F)cc2)cnc2c1oc(=O)n2C [Example 5, N-(4-(7-Ethyl-3-methyl-2-oxo-2,3-dihydrooxazolo [4,5-b]pyridin-6-yl)phenyl)-2,6-difluorobenzamide]
25 to 50	Cn1c(=O)oc2c(C3CC3)c(-c3ccc(NC(=O)c4c(F)cccc4F)cc3)cnc21 [Example 9, N-(4-(7-Cyclopropyl-3-methyl-2-oxo-2,3-dihydrooxazolo[4,5-b]pyridin-6-yl)phenyl)-2,6-difluorobenzamide]
50 to 100	Cc1c(-c2ccc(NC(=O)c3c(F)cccc3F)cc2)ccc2c1oc(=O)n2C [Example 14, N-(4-(3,7-Dimethyl-2-oxo-2,3-dihydrobenzo [d]oxazol-6-yl)phenyl)-2,6-difluorobenzamide]
25 to 50	CCc1c(-c2ccc(NC(=O)c3c(F)cccc3F)cc2)ccc2c1oc(=O)n2C [Example 16, N-(4-(7-Ethyl-3-methyl-2-oxo-2,3-dihydrobenzo [d]oxazol-6-yl)phenyl)-2,6-difluorobenzamide]
< 25	Cc1cc2oc(=O)n(C)c2cc1-c1ccc(NC(=O)c2c(F)cccc2F)cc1 [Example 27, N-(4-(3,6-Dimethyl-2-oxo-2,3-dihydrobenzo [d]oxazol-5-yl)phenyl)-2,6-difluorobenzamide]
25 to 50	Cc1cc2oc(=O)n(CC3CC3)c2cc1-c1ccc(NC(=O)c2c(F)cccc2F)cc1 [Example 29, N-(4-(3-(Cyclopropylmethyl)-6-methyl-2-oxo-2,3-dihydrobenzo[d]oxazol-5-yl)phenyl)-2,6-difluorobenzamide]
< 25	Cc1cc2oc(=O)n(CCF)c2cc1-c1ccc(NC(=O)c2c(F)cccc2F)cc1 [Example 30, 2,6-Difluoro-N-(4-(3-(2-fluoroethyl)-6-methyl-2-oxo-2,3-dihydrobenzo[d]oxazol-5-yl)phenyl)benzamide]
< 25	Cc1cc2oc(=O)n(C(C)C)c2cc1-c1ccc(NC(=O)c2c(F)cccc2F)cc1 [Example 31, 2,6-Difluoro-N-(4-(3-isopropyl-6-methyl-2-oxo-2,3-dihydrobenzo[d]oxazol-5-yl)phenyl)benzamide]
< 25	Cc1cc2oc(=O)n(C(F)F)c2cc1-c1ccc(NC(=O)c2c(F)cccc2F)cc1 [Example 32, N-(4-(3-(Difluoromethyl)-6-methyl-2-oxo-2,3-dihydrobenzo[d]oxazol-5-yl)phenyl)-2,6-difluorobenzamide]
< 25	Cn1c(=O)oc2cc(-c3ccc(NC(=O)c4c(F)cccc4F)cc3)c(C3CC3)nc21 [Example 36, N-(4-(5-Cyclopropyl-3-methyl-2-oxo-2,3-dihydrooxazolo [4,5-b]pyridin-6-yl)phenyl)-2,6-difluorobenzamide]
< 25	CCc1nc2c(cc1-c1ccc(NC(=O)c3c(F)cccc3F)cc1)oc(=O)n2C [Example 37, N-(4-(5-Ethyl-3-methyl-2-oxo-2,3-dihydrooxazolo [4,5-b]pyridin-6-yl)phenyl)-2,6-difluorobenzamide]
< 25	Cc1nc2c(cc1-c1ccc(NC(=O)c3c(F)cccc3F)cc1)oc(=O)n2C [Example 38, N-(4-(3,5-dimethyl-2-oxo-2,3-dihydrooxazolo [4,5-b]pyridin-6-yl)phenyl)-2,6-difluorobenzamide]
< 25	CCc1cc2c(cc1-c1ccc(NC(=O)c3c(F)cccc3F)cc1)oc(=O)n2C [Example 43, N-(4-(5-Ethyl-3-methyl-2-oxo-2,3-dihydrobenzo[d]oxazol-6-yl)phenyl)-2,6-difluorobenzamide]
25 to 50	Cc1cc2oc(=O)n(C)c2cc1-c1ccc(NC(=O)c2c(F)cccc2Cl)cc1 [Example 46, 2-Chloro-N-(4-(3,6-dimethyl-2-oxo-2,3-dihydrobenzo[d]oxazol-5-yl)phenyl)-6-fluorobenzamide]
25 to 50	Cc1cc2oc(=O)n(C)c2cc1-c1ccc(NC(=O)c2c(C)cccc2F)cc1 [Example 49, N-(4-(3,6-Dimethyl-2-oxo-2,3-dihydrobenzo [d]oxazol-5-yl)phenyl)-2-fluoro-6-methylbenzamide]
50 to 100	Cc1cc2oc(=O)n(C)c2cc1-c1cnc(NC(=O)c2c(F)cccc2F)cn1 [Example 51, N-(5-(3,6-dimethyl-2-oxo-2,3-dihydrobenzo[d]oxazol-5-yl)pyrazin-2-yl)-2,6-difluorobenzamide]
25 to 50	Cc1cc2oc(=O)n(C)c2cc1-c1ccc(NC(=O)c2c(F)cccc2F)nc1 [Example 53, N-(5-(3,6-Dimethyl-2-oxo-2,3-dihydrobenzo [d]oxazol-5-yl)pyridin-2-yl)-2,6-difluoro benzamide]
< 25	Cc1cc2oc(=O)n(C)c2cc1-c1ccc(NCc2c(F)cccc2F)cc1 [Example 55, 5-(4-((2,6-Difluorobenzyl)amino)phenyl)-3,6-dimethyl benzo[d] oxazol-2(3H)-one]
25 to 50	Cc1cc2oc(=O)n(C)c2cc1-c1ccc(C(=O)Nc2c(Cl)cncc2Cl)s1 [Example 61, N-(3,5-Dichloropyridin-4-yl)-5-(3,6-dimethyl-2-oxo-2,3-dihydrobenzo [d]oxazol-5-yl)thiophene-2-carboxamide]
50 to 100	Cn1c(=O)oc2cc(-c3ccc(C(=O)Nc4c(F)cccc4F)s3)c(C3CC3)cc21 [Example 74, 5-(5-Cyclopropyl-3-methyl-2-oxo-2,3-dihydrobenzo [d]oxazol-6-yl)-N-(2,6-difluorophenyl) thiophene-2-carboxamide]
